Source: patent US20170190671A1, “BIS(ARYL)CATECHOL DERIVATIVES AS HERBICIDES” (E I DU PONT DE NEMOURS AND COMPANY, priority 2014, published 2017)

Columns and labels:
[1] = test system: Italian ryegrass (Lolium multiflorum); assay: Test C preemergence; assay type: in vivo; conditions: Lolium multiflorum, pre-emergence, 336 h, preemergence, scale 0 to 100, read-out: Plant response rating, Ryegrass, Italian
Procedure, shortened: (§1)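 Greenhouse test; preemergence on seeded loam-sand soil or spray on 1- to 4-leaf plants; solvent + surfactant vehicle; 13-15 day hold; visual comparison with controls; 0 (no effect)-100 (complete control).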

[2] = test system: barnyardgrass (Echinochloa crus-galli); assay: Test C preemergence; assay type: in vivo; conditions: Echinochloa crus-galli, pre-emergence, preemergence, scale 0 to 100, read-out: Plant response rating, Barnyardgrass
Procedure, shortened: as §1

[3] = test system: blackgrass (Alopecurus myosuroides); assay: Test C preemergence; assay type: in vivo; conditions: Alopecurus myosuroides, pre-emergence, 336 h, preemergence, scale 0 to 100, read-out: Plant response rating, Blackgrass
Procedure, shortened: as §1

[4] = test system: corn (Zea mays); assay: Test C preemergence; assay type: in vivo; conditions: Zea mays, pre-emergence, 336 h, preemergence, scale 0 to 100
Procedure, shortened: as §1

[5] = test system: giant foxtail (Setaria faberii); assay: Test C preemergence; assay type: in vivo; conditions: Setaria faberi, pre-emergence, 336 h, preemergence, scale 0 to 100, read-out: Plant response rating, Foxtail, Giant
Procedure, shortened: as §1

[6] = test system: johnsongrass (Sorghum halepense); assay: Test C preemergence; assay type: in vivo; conditions: Sorghum halepense, pre-emergence, 336 h, preemergence, scale 0 to 100, read-out: Plant response rating, Johnsongrass
Procedure, shortened: as §1

[7] = test system: large (Lg) crabgrass (Digitaria sanguinalis); assay: Test C preemergence; assay type: in vivo; conditions: Digitaria sanguinalis, pre-emergence, 336 h, preemergence, scale 0 to 100, read-out: Plant response rating, Crabgrass, Large
Procedure, shortened: as §1

[8] = test system: morningglory (Ipomoea coccinea); assay: Test C preemergence; assay type: in vivo; conditions: Ipomoea, pre-emergence, 336 h, preemergence, scale 0 to 100, read-out: Plant response rating, Morningglory
Procedure, shortened: as §1

[9] = test system: oilseed rape (Brassica napus); assay: Test C preemergence; assay type: in vivo; conditions: Brassica napus, pre-emergence, preemergence, scale 0 to 100, read-out: Plant response rating, Oilseed Rape
Procedure, shortened: as §1

[10] = test system: pigweed (Amaranthus retroflexus); assay: Test C preemergence; assay type: in vivo; conditions: Amaranthus retroflexus, pre-emergence, 336 h, preemergence, scale 0 to 100, read-out: Plant response rating, Pigweed
Procedure, shortened: as §1

[11] = test system: ragweed (common ragweed, Ambrosia elatior); assay: Test C preemergence; assay type: in vivo; conditions: Ambrosia artemisiifolia, pre-emergence, 336 h, preemergence, scale 0 to 100, read-out: Plant response rating, Ragweed
Procedure, shortened: as §1

[12] = test system: soybean (Glycine max); assay: Test C preemergence; assay type: in vivo; conditions: Glycine max, pre-emergence, preemergence, scale 0 to 100, read-out: Plant response rating, Soybean
Procedure, shortened: as §1

[13] = test system: velvetleaf (Abutilon theophrasti); assay: Test C preemergence; assay type: in vivo; conditions: Abutilon theophrasti, pre-emergence, preemergence, scale 0 to 100, read-out: Plant response rating, Velvetleaf
Procedure, shortened: as §1

[14] = test system: waterhemp (common waterhemp, Amaranthus rudis); assay: Test C preemergence; assay type: in vivo; conditions: Amaranthus tuberculatus, pre-emergence, preemergence, scale 0 to 100, read-out: Plant response rating, Waterhemp
Procedure, shortened: as §1

[15] = test system: winter wheat (Triticum aestivum); assay: Test C preemergence; assay type: in vivo; conditions: Triticum aestivum, pre-emergence, 336 h, preemergence, scale 0 to 100, read-out: Plant response rating, Wheat
Procedure, shortened: as §1

[16] = test system: chickweed (common chickweed, Stellaria media); assay: Test C postemergence; assay type: in vivo; conditions: Stellaria media, post-emergence, Postemergence, scale 0 to 100, read-out: Plant response rating, Chickweed
[17] = test system: galium (catchweed bedstraw, Galium aparine); assay: Test C postemergence; assay type: in vivo; conditions: Galium, post-emergence, 336 h, Postemergence, scale 0 to 100, read-out: Plant response rating, Galium
[18] = test system: kochia (Kochia scoparia); assay: Test C postemergence; assay type: in vivo; conditions: Bassia scoparia, post-emergence, Postemergence, scale 0 to 100, read-out: Plant response rating, Kochia
[19] = test system: pigweed (Amaranthus retroflexus); assay: Test C postemergence; assay type: in vivo; conditions: Amaranthus retroflexus, post-emergence, 336 h, Postemergence, scale 0 to 100, read-out: Plant response rating, Pigweed
[20] = test system: waterhemp (common waterhemp, Amaranthus rudis); assay: Test C postemergence; assay type: in vivo; conditions: Amaranthus tuberculatus, post-emergence, Postemergence, scale 0 to 100, read-out: Plant response rating, Waterhemp
[21] = test system: wild oat (Avena fatua); assay: Test C postemergence; assay type: in vivo; conditions: Avena fatua, post-emergence, Postemergence, scale 0 to 100, read-out: Plant response rating, Oat, Wild
[22] = test system: yellow nutsedge (Cyperus esculentus); assay: Test C postemergence; assay type: in vivo; conditions: Cyperus, post-emergence, 336 h, Postemergence, scale 0 to 100, read-out: Plant response rating, Nutsedge, Yellow

## Fc1cnc(Oc2c(Br)cccc2Oc2ncc(Cl)cn2)nc1 [Compound 22]
[1]; 31 g ai/ha
  pest or weed control at 31 g/ha: 5%
[1]; 62 g ai/ha
  pest or weed control at 62 g/ha: 30%
[1]; 125 g ai/ha
  pest or weed control at 125 g/ha: 80%
[1]; 250 g ai/ha
  pest or weed control at 250 g/ha: 90%
[2]; 31 g ai/ha
  pest or weed control at 31 g/ha: 60%
[2]; 62 g ai/ha
  pest or weed control at 62 g/ha: 95%
[2]; 125 g ai/ha
  pest or weed control at 125 g/ha: 100%
[2]; 250 g ai/ha
  pest or weed control at 250 g/ha: 100%
[3]; 31 g ai/ha
  pest or weed control at 31 g/ha: 10%
[3]; 62 g ai/ha
  pest or weed control at 62 g/ha: 60%
[3]; 125 g ai/ha
  pest or weed control at 125 g/ha: 90%
[4]; 31 g ai/ha
  Corn plant response rating (crop injury, 0 = no effect, 100 = complete kill) at 31 g/ha: 10%
[4]; 62 g ai/ha
  Corn plant response rating (crop injury, 0 = no effect, 100 = complete kill) at 62 g/ha: 40%
[4]; 125 g ai/ha
  Corn plant response rating (crop injury, 0 = no effect, 100 = complete kill) at 125 g/ha: 80%
[5]; 31 g ai/ha
  pest or weed control at 31 g/ha: 100%
[5]; 62 g ai/ha
  pest or weed control at 62 g/ha: 100%
[5]; 125 g ai/ha
  pest or weed control at 125 g/ha: 100%
[6]; 31 g ai/ha
  pest or weed control at 31 g/ha: 10%
[6]; 62 g ai/ha
  pest or weed control at 62 g/ha: 30%
[6]; 125 g ai/ha
  pest or weed control at 125 g/ha: 70%
[7]; 31 g ai/ha
  pest or weed control at 31 g/ha: 100%
[7]; 62 g ai/ha
  pest or weed control at 62 g/ha: 100%
[7]; 125 g ai/ha
  pest or weed control at 125 g/ha: 100%
[8]; 31 g ai/ha
  pest or weed control at 31 g/ha: 0%
[8]; 62 g ai/ha
  pest or weed control at 62 g/ha: 65%
[8]; 125 g ai/ha
  pest or weed control at 125 g/ha: 95%
[9]; 31 g ai/ha
  plant injury at 31 g/ha: 85%
[9]; 62 g ai/ha
  plant injury at 62 g/ha: 98%
[9]; 125 g ai/ha
  plant injury at 125 g/ha: 100%
[9]; 250 g ai/ha
  plant injury at 250 g/ha: 100%
[10]; 31 g ai/ha
  pest or weed control at 31 g/ha: 100%
[10]; 62 g ai/ha
  pest or weed control at 62 g/ha: 100%
[10]; 125 g ai/ha
  pest or weed control at 125 g/ha: 100%
[11]; 31 g ai/ha
  pest or weed control at 31 g/ha: 55%
[11]; 62 g ai/ha
  pest or weed control at 62 g/ha: 85%
[11]; 125 g ai/ha
  pest or weed control at 125 g/ha: 90%
[11]; 250 g ai/ha
  pest or weed control at 250 g/ha: 95%
[12]; 31 g ai/ha
  plant injury at 31 g/ha: 60%
[12]; 62 g ai/ha
  plant injury at 62 g/ha: 70%
[12]; 125 g ai/ha
  plant injury at 125 g/ha: 90%
[12]; 250 g ai/ha
  plant injury at 250 g/ha: 95%
[13]; 31 g ai/ha
  pest or weed control at 31 g/ha: 70%
[13]; 62 g ai/ha
  pest or weed control at 62 g/ha: 98%
[13]; 125 g ai/ha
  pest or weed control at 125 g/ha: 100%
[13]; 250 g ai/ha
  pest or weed control at 250 g/ha: 100%
[14]; 31 g ai/ha
  pest or weed control at 31 g/ha: 100%
[14]; 62 g ai/ha
  pest or weed control at 62 g/ha: 100%
[14]; 125 g ai/ha
  pest or weed control at 125 g/ha: 100%
[14]; 250 g ai/ha
  pest or weed control at 250 g/ha: 100%
[15]; 31 g ai/ha
  plant injury at 31 g/ha: 0%
[15]; 62 g ai/ha
  plant injury at 62 g/ha: 15%
[15]; 125 g ai/ha
  plant injury at 125 g/ha: 20%
[15]; 250 g ai/ha
  plant injury at 250 g/ha: 90%
[16]; 31 g ai/ha
  pest or weed control at 31 g/ha: 50%
[16]; 62 g ai/ha
  pest or weed control at 62 g/ha: 50%
[16]; 125 g ai/ha
  pest or weed control at 125 g/ha: 55%
[16]; 250 g ai/ha
  pest or weed control at 250 g/ha: 80%
[17]; 31 g ai/ha
  pest or weed control at 31 g/ha: 70%
[17]; 62 g ai/ha
  pest or weed control at 62 g/ha: 90%
[17]; 125 g ai/ha
  pest or weed control at 125 g/ha: 90%
[17]; 250 g ai/ha
  pest or weed control at 250 g/ha: 95%
[18]; 31 g ai/ha
  pest or weed control at 31 g/ha: 45%
[18]; 62 g ai/ha
  pest or weed control at 62 g/ha: 60%
[18]; 125 g ai/ha
  pest or weed control at 125 g/ha: 85%
[18]; 250 g ai/ha
  pest or weed control at 250 g/ha: 90%
[19]; 31 g ai/ha
  pest or weed control at 31 g/ha: 75%
[19]; 62 g ai/ha
  pest or weed control at 62 g/ha: 85%
[19]; 125 g ai/ha
  pest or weed control at 125 g/ha: 90%
[19]; 250 g ai/ha
  pest or weed control at 250 g/ha: 100%
[20]; 31 g ai/ha
  pest or weed control at 31 g/ha: 70%
[20]; 62 g ai/ha
  pest or weed control at 62 g/ha: 85%
[20]; 125 g ai/ha
  pest or weed control at 125 g/ha: 95%
[20]; 250 g ai/ha
  pest or weed control at 250 g/ha: 95%
[21]; 31 g ai/ha
  pest or weed control at 31 g/ha: 0%
[21]; 62 g ai/ha
  pest or weed control at 62 g/ha: 5%
[21]; 125 g ai/ha
  pest or weed control at 125 g/ha: 10%
[21]; 250 g ai/ha
  pest or weed control at 250 g/ha: 15%
[22]; 31 g ai/ha
  pest or weed control at 31 g/ha: 5%
[22]; 62 g ai/ha
  pest or weed control at 62 g/ha: 5%
[22]; 125 g ai/ha
  pest or weed control at 125 g/ha: 10%
[22]; 250 g ai/ha
  pest or weed control at 250 g/ha: 10%
other
  melting point: 113 to 116 °C
